Data: patent publication US7928126B2, “Cyanopyridine derivative and use thereof as medicine” (Mitsubishi Tanabe Pharma Corporation, priority 2005, dated 2011)
Structures can show the parent of a compound that is named as a salt.

Tests used:
Type in all cases: biochemical
aurora 2 kinase = biological target: T1, aurora 2 kinase (Homo sapiens, UniProt O14965); experiment: Aurora 2 kinase assay (32P-ATP, peptide substrate LRRASLG); settings: room temperature 60 min
T1 construct: The amplified gene encoding aurora 2 kinase was introduced into Escherichia coli expression vector pET32a; made in house; host or cells: Escherichia coli BL21R (Novagen), vector pET32a
T1 sequence (O14965 1-403): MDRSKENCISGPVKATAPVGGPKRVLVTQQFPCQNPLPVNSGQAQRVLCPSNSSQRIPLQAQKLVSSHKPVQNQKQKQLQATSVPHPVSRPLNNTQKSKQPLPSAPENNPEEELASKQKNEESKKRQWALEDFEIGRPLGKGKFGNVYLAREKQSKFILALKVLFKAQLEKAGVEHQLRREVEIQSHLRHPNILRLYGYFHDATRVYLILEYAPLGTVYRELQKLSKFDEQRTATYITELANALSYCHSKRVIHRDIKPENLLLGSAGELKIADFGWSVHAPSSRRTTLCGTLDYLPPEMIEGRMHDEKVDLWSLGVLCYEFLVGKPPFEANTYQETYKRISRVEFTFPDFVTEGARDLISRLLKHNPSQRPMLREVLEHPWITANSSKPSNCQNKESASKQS

[1] = biological target: T2, Porcine brain tubulin protein (Sus scrofa, UniProt P02550+P02554); experiment: Tubulin polymerization assay (turbidity at 405 nm); settings: 10 μM compound, maximum polymerization rate, 37° C.; read-out: inhibitory rate (%)
T2 construct: 3.3 mg/ml Porcine brain tubulin protein: Cytoskeleton; purchased Cytoskeleton; host or cells: porcine brain (tissue-derived)
Procedure: A tubulin polymerization reaction mixture (50 μL) (80 mM Pipes pH=6.9, 0.5 mM MgCl2, 1 mM EGTA, 1 mM GTP, 3.3 mg/ml Porcine brain tubulin protein: Cytoskeleton, 10 μM compound) was prepared in a 96 well flat bottom plate under ice-cooling. This was placed in a plate reader (IWAKI microplate reader, EZS-ABS) controlled to a temperature of 37° C., whereby a temperature dependent tubulin polymerization reaction was initiated. Since the turbidity of the reaction mixture increases as the tubulin polymerization proceeds, the absorbance at 405 nm was measured every other minute for 30 min to monitor the polymerization reaction. Of the 30 min measures, the three largest differences per min of turbidity (generally those immediately after start of the reaction) were taken, and the average of the three values was calculated and taken as the maximum polymerization rate. Inhibitory percent (%)=(C−T)/C×100 wherein T is the maximum polymerization rate of the reaction mixture containing the compound, and C is the maximum polymerization rate of the reaction mixture without the compound.

aurora 1 kinase = biological target: T3, aurora 1 kinase (Homo sapiens, UniProt Q96GD4); experiment: Aurora 1 kinase assay (32P-ATP, peptide substrate LRRWSLG); settings: room temperature 60 min
T3 construct: purchased UPSTATE
T3 sequence (Q96GD4 whole entry): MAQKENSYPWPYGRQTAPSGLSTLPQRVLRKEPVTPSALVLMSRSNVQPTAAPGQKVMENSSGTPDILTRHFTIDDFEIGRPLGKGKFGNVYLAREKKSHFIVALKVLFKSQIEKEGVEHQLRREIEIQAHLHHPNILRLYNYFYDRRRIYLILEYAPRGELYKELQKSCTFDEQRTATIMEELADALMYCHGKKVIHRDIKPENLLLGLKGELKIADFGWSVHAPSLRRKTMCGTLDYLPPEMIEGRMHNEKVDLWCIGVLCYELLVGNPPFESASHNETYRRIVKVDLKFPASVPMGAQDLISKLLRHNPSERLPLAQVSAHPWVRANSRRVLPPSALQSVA

T2 sequence (P02550 whole entry): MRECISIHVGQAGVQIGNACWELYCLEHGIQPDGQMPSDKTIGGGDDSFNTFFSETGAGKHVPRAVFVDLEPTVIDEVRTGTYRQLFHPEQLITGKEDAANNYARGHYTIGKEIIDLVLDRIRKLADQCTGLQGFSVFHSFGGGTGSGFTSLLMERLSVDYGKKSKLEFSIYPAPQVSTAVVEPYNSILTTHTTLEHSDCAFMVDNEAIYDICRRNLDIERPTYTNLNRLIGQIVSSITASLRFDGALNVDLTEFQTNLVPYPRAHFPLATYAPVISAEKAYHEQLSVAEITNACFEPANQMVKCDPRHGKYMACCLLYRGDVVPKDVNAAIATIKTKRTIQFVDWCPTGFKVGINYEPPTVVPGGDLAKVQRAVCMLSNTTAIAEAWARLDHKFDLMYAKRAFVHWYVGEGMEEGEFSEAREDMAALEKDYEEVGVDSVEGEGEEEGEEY
T2 sequence (P02554 whole entry): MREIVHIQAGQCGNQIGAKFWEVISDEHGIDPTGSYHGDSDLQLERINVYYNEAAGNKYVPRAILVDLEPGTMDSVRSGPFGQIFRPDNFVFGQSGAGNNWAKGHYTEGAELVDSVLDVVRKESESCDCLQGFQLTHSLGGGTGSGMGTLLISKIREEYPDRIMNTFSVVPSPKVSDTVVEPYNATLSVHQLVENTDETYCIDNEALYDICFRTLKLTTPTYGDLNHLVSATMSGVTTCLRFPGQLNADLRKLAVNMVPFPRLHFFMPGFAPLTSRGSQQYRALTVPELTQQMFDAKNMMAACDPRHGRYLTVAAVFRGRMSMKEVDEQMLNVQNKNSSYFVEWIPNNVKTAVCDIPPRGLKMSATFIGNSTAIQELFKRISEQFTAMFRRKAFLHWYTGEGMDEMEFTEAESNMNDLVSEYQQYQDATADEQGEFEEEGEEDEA

Compound | Ki (aurora 2 kinase) [nM] | inhibition at 10 µM [1] [%] | Ki (aurora 1 kinase) [nM]
Cc1cc(Nc2cc(-c3cccnc3)c(C#N)c(NCCOc3cccc(F)c3)n2)n[nH]1 [Example 18, 2-(2-(3-fluorophenoxy)ethylamino)-6-(5-methyl-1H-pyrazol-3-ylamino)-4-(pyridin-3-yl)nicotinonitrile dihydrochloride] | 2 | 79 | –
Cc1cc(Nc2ccc(C#N)c(NCCOc3ccccc3Cl)n2)n[nH]1 [Example 25, 2-(2-(2-chlorophenoxy)ethylamino)-6-(5-methyl-1H-pyrazol-3-ylamino)nicotinonitrile hydrochloride] | 2 | 51 | ≤ 100
Cc1cc(Nc2ccc(C#N)c(NCCOc3ccc(OC(F)(F)F)cc3)n2)n[nH]1 [Example 30, 2-(2-(4-(trifluoromethoxy)phenoxy)ethylamino)-6-(5-methyl-1H-pyrazol-3-ylamino)nicotinonitrile] | 80 | 34 | –
Cc1cc(Nc2cc(C)c(C#N)c(NCCOc3ccccn3)n2)n[nH]1 [Example 7, 2-(2-(pyridin-2-yloxy)ethylamino)-6-(5-methyl-1H-pyrazol-3-ylamino)-4-methylnicotinonitrile dihydrochloride] | 6 | 63 | –
Cc1cc(Nc2cc(C(C)C)n[nH]2)nc(NCCOc2cccnc2)c1C#N [Example 35, 6-(5-isopropyl-1H-pyrazol-3-ylamino)-4-methyl-2-(2-(pyridin-3-yloxy)ethylamino)nicotinonitrile] | – | – | ≤ 100
Cc1ccc(OCCNc2nc(Nc3cc(C)[nH]n3)ccc2C#N)c(C)n1 [Example 29, 2-(2-(2,6-dimethylpyridin-3-yloxy)ethylamino)-6-(5-methyl-1H-pyrazol-3-ylamino)nicotinonitrile dihydrochloride] | 66 | 42 | –
Cc1cc(Nc2cc(C)c(C#N)c(NCCOc3ccc(F)cc3)n2)n[nH]1 [Example 10, 2-(2-(4-fluorophenoxy)ethylamino)-6-(5-methyl-1H-pyrazol-3-ylamino)-4-methylnicotinonitrile] | 3 | 44 | –
COc1ccc(-c2cc(Nc3cc(C)[nH]n3)nc(NCCOc3ccccc3)c2C#N)cc1 [Example 4, 2-(2-phenoxyethylamino)-6-(5-methyl-1H-pyrazol-3-ylamino)-4-(4-methoxyphenyl)nicotinonitrile] | 15 | 63 | –
COc1ccc(-c2cc(Nc3cc(C)[nH]n3)nc(NCCOc3ccccc3Cl)c2C#N)cc1 [Example 26, 2-(2-(2-chlorophenoxy)ethylamino)-6-(5-methyl-1H-pyrazol-3-ylamino)-4-(4-methoxyphenyl)nicotinonitrile hydrochloride] | 13 | 48 | –
Cc1cc(Nc2ccc(C#N)c(NCCOc3cccnc3)n2)n[nH]1 [Example 17, 2-(2-(pyridin-3-yloxy)ethylamino)-6-(5-methyl-1H-pyrazol-3-ylamino)nicotinonitrile] | 2 | 67 | –
Cc1cc(Nc2cc(C3CC3)n[nH]2)nc(NCCOc2cccnc2)c1C#N [Example 34, 6-(5-cyclopropyl-1H-pyrazol-3-ylamino)-4-methyl-2-(2-(pyridin-3-yloxy)ethylamino)nicotinonitrile] | – | – | ≤ 100
COc1ccc(OCCNc2nc(Nc3cc(C)[nH]n3)cc(C)c2C#N)cc1 [Example 5, 2-(2-(4-methoxyphenoxy)ethylamino)-6-(5-methyl-1H-pyrazol-3-ylamino)-4-methylnicotinonitrile hydrochloride] | 26 | 51 | –
Cc1cc(Nc2cc(C)c(C#N)c(NCCOc3ccccc3Cl)n2)n[nH]1 [Example 24, 2-(2-(2-chlorophenoxy)ethylamino)-6-(5-methyl-1H-pyrazol-3-ylamino)-4-methylnicotinonitrile hydrochloride] | 1 | 73 | –
Cc1cc(Nc2cc(-c3ccccc3)c(C#N)c(NCCOc3ccccc3)n2)n[nH]1 [Example 1, 2-(2-phenoxyethylamino)-6-(5-methyl-1H-pyrazol-3-ylamino)-4-phenylnicotinonitrile] | 19 | 51 | –
Cc1cc(Nc2cc(C)c(C#N)c(NCCOc3ccncc3)n2)n[nH]1 [Example 11, 2-(2-(pyridin-4-yloxy)ethylamino)-6-(5-methyl-1H-pyrazol-3-ylamino)-4-methylnicotinonitrile] | 24 | 42 | –
Cc1cc(Nc2ccc(C#N)c(NCCOc3ccccc3)n2)n[nH]1 [Example 14, 2-(2-phenoxyethylamino)-6-(5-methyl-1H-pyrazol-3-ylamino)nicotinonitrile] | 3 | 55 | –
Cc1cc(Nc2cc(C)c(C#N)c(NCCOc3ccccc3F)n2)n[nH]1 [Example 13, 2-(2-(2-fluorophenoxy)ethylamino)-6-(5-methyl-1H-pyrazol-3-ylamino)-4-methylnicotinonitrile hydrochloride] | 2 | 69 | ≤ 100
Cc1cc(Nc2ccc(C#N)c(NCCOc3ccccc3F)n2)n[nH]1 [Example 19, 2-(2-(2-fluorophenoxy)ethylamino)-6-(5-methyl-1H-pyrazol-3-ylamino)nicotinonitrile hydrochloride] | 1 | 59 | –
Cc1cc(Nc2cc(C(F)(F)F)c(C#N)c(NCCOc3ccccc3)n2)n[nH]1 [Example 3, 2-(2-phenoxyethylamino)-6-(5-methyl-1H-pyrazol-3-ylamino)-4-trifluoromethylnicotinonitrile] | 15 | 36 | –
Cc1cc(Nc2ccc(C#N)c(NCCOc3cccc(F)c3)n2)n[nH]1 [Example 15, 2-(2-(3-fluorophenoxy)ethylamino)-6-(5-methyl-1H-pyrazol-3-ylamino)nicotinonitrile] | 2 | 69 | –
Cc1ccc(OCCNc2nc(Nc3cc(C)[nH]n3)ccc2C#N)cn1 [Example 27, 2-(2-(6-methylpyridin-3-yloxy)ethylamino)-6-(5-methyl-1H-pyrazol-3-ylamino)nicotinonitrile dihydrochloride] | 3 | 57 | ≤ 100
Cc1cc(Nc2cc(C)c(C#N)c(NCCOc3cc(F)cc(F)c3)n2)n[nH]1 [Example 20, 2-(2-(3,5-difluorophenoxy)ethylamino)-6-(5-methyl-1H-pyrazol-3-ylamino)-4-methylnicotinonitrile hydrochloride] | 2 | 75 | –
COc1ccccc1OCCNc1nc(Nc2cc(C)[nH]n2)cc(C)c1C#N [Example 8, 2-(2-(2-methoxyphenoxy)ethylamino)-6-(5-methyl-1H-pyrazol-3-ylamino)-4-methylnicotinonitrile] | 6 | 42 | –
Cc1cc(Nc2cc(C)c(C#N)c(NCCOc3ccc(F)c(Cl)c3)n2)n[nH]1 [Example 16, 2-(2-(3-chloro-4-fluorophenoxy)ethylamino)-6-(5-methyl-1H-pyrazol-3-ylamino)-4-methylnicotinonitrile] | 3 | 65 | –
Cc1cc(Nc2cc(-c3cccnc3)c(C#N)c(NCCOc3ccccc3)n2)n[nH]1 [Example 6, 2-(2-phenoxyethylamino)-6-(5-methyl-1H-pyrazol-3-ylamino)-4-(pyridin-3-yl)nicotinonitrile] | 3 | < 0 | –
